The values below come from publication PMC10378394 (Current Issues in Molecular Biology, 2023).

Some results are limits rather than exact numbers.

Data set [1] has as its target CDK2/cyclinE(h) (Homo sapiens, UniProt P24941). Nature of the data set: Eurofins kinase assay.
Data set [2] is described as follows: 2-week repeated oral DRF study. It counts as in vivo. The note with it: 500 mg/kg oral.
Data set [3] is described as follows: Tolerability in mouse xenograft experiments. Format: in vivo. How it is done:
Human-derived colorectal cancer cell lines, LS513, HCT-116, and HT29, were subcutaneously transplanted into 6-week-old female BALB/c nude mice to establish tumor models. Additionally, the mouse cancer cell line MC38 was subcutaneously transplanted into 6-week-old female and C57BL/6 mice to induce tumor formation. […]. The treatments were administered orally once daily for 2 weeks based on the growth rate observed in the vehicle group. Tumor volume was evaluated three times a week using the formula Tumor volume (TV) = (tumor short diameter ^2 × tumor long diameter)/2. The body weight of the mice was measured three times a week to assess potential toxicity in vivo. […]

The target in data set [4] is BRAF (Homo sapiens, UniProt P15056). Nature of the data set: Eurofins kinase assay.
In data set [5] the target is PKCθ(h) (Homo sapiens, UniProt Q04759). Nature of the data set: Eurofins kinase assay.
Data set [6] deals with PI3Kinase(p110a(H1047R)/p85a)(m) (Mus musculus, UniProt P42337, H1047R). The data set can be described thus: Eurofins kinase assay.
Data set [7] addresses GSK3β(h) (Homo sapiens, UniProt P49841). Nature of the data set: Eurofins kinase assay.
Data set [8] concerns the target ATM(h) (Homo sapiens, UniProt Q13315). The data set can be described thus: Eurofins kinase assay.
For data set [9], the target named is EphB2(h) (Homo sapiens, UniProt P29323). The data set can be described thus: Eurofins kinase assay.
Data set [10] deals with T1, ARAF (Homo sapiens, UniProt P10398).
T1 sequence (P10398 1-606): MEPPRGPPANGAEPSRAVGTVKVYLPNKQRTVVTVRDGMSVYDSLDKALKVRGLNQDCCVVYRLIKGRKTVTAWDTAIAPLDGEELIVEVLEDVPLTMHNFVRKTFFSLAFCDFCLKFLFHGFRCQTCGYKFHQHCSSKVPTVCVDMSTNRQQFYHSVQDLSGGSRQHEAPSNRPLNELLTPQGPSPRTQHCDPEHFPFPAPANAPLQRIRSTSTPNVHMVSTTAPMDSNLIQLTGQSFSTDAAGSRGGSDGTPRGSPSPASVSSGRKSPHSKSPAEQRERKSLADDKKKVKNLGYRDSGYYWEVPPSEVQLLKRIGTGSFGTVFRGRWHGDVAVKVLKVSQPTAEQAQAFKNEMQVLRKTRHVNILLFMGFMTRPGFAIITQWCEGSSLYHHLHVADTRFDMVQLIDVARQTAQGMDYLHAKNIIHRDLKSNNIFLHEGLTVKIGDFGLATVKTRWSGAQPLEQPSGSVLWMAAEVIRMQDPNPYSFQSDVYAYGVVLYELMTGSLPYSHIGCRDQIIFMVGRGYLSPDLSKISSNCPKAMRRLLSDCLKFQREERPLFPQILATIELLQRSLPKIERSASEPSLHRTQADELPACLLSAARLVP
Nature of the data set: Eurofins kinase assay.

Data set [11] deals with AKT phosphorylation. Nature of the data set: Western blot in LS513 cells. It counts as cell-based, human. The note with it: LS513, 1 h treatment. How it is done:
(§1) In 6-well plates, LS513 cells were seeded and allowed to adhere and proliferate for 24 h. […] After treatment, the cells were harvested using RIPA lysis buffer to extract cellular proteins. The cell lysates were subjected to Western blot analysis. Antibodies specific to phosphorylated epidermal growth factor receptor (p-EGFR, Cell Signaling Technology, Danvers, MA, USA, #2234S), epidermal growth factor receptor (EGFR, Cell Signaling Technology #2232S), phosphorylated vascular endothelial growth factor receptor (p-VEGFR, Cell Signaling Technology #3770S), vascular endothelial growth factor receptor (VEGFR, Cell Signaling Technology #2479S), phosphorylated Akt (p-Akt, Cell Signaling Technology #9271S), Akt (Cell Signaling Technology #9272S), phosphorylated MEK (p-MEK, Cell Signaling Technology #9121S), MEK (Cell Signaling Technology #9122), phosphorylated ERK (p-ERK, Cell Signaling Technology #9101S), and ERK (Cell Signaling Technology #9102S) were used for protein detection. The antibodies were diluted 1:1000 for the specific target proteins. In addition, a β-actin antibody (Sigma-Aldrich, Seoul, Republic of Korea, #A5441) diluted 1:5000 was used as a loading control. Bone-marrow-derived macrophages (BMDMs) were plated and allowed to adhere and proliferate for 24 h. […] Subsequently, the cells were stimulated with recombinant human angiopoietin-2 (R&D Systems, Minneapolis, MN, USA, #623-AN) and CSF1 (Peprotech, #300-25) for 15 min. After stimulation, protein samples were obtained from the cells. The cell lysates were analyzed by Western blot using specific antibodies, such as p-CSF1R (Cell Signaling, #14591S), CSF1R (Cell Signaling, #67455S), p-TIE2 (Cell Signaling, #4221S), and TIE2 (Santa Cruz Biotechnology, Dallas, TX, USA, #sc-293414), to detect and analyze the respective proteins.
A general note: Immunoblotting shows a protein as a band on a membrane.

The test system of data set [12] is MEK and ERK phosphorylation. The data set can be described thus: Western blot in LS513 cells. It counts as cell-based, human. How it is done:
as §1

Data set [13] deals with CRAF (Homo sapiens, UniProt P04049). The data set can be described thus: Eurofins kinase assay.
In data set [14] the target is CDK1/cyclinB(h) (Homo sapiens, UniProt P06493). Nature of the data set: Eurofins kinase assay.
Data set [15] addresses Rsk2(h) (Homo sapiens, UniProt P51812). The data set can be described thus: Eurofins kinase assay.
The target of data set [16] is CDK5/p35(h) (Homo sapiens, UniProt Q00535). The data set can be described thus: Eurofins kinase assay.
The target of data set [17] is MAPK2(h) (Homo sapiens, UniProt P28482). The data set can be described thus: Eurofins kinase assay.
Data set [18] concerns the target PRK2(h) (Homo sapiens, UniProt Q16513). The data set can be described thus: Eurofins kinase assay.
Data set [19] has as its target PKCγ(h) (Homo sapiens, UniProt P05129). Nature of the data set: Eurofins kinase assay.

Chain of PI3Kinase(p110a(H1047R)/p85a)(m) (P42337 whole entry H1047R): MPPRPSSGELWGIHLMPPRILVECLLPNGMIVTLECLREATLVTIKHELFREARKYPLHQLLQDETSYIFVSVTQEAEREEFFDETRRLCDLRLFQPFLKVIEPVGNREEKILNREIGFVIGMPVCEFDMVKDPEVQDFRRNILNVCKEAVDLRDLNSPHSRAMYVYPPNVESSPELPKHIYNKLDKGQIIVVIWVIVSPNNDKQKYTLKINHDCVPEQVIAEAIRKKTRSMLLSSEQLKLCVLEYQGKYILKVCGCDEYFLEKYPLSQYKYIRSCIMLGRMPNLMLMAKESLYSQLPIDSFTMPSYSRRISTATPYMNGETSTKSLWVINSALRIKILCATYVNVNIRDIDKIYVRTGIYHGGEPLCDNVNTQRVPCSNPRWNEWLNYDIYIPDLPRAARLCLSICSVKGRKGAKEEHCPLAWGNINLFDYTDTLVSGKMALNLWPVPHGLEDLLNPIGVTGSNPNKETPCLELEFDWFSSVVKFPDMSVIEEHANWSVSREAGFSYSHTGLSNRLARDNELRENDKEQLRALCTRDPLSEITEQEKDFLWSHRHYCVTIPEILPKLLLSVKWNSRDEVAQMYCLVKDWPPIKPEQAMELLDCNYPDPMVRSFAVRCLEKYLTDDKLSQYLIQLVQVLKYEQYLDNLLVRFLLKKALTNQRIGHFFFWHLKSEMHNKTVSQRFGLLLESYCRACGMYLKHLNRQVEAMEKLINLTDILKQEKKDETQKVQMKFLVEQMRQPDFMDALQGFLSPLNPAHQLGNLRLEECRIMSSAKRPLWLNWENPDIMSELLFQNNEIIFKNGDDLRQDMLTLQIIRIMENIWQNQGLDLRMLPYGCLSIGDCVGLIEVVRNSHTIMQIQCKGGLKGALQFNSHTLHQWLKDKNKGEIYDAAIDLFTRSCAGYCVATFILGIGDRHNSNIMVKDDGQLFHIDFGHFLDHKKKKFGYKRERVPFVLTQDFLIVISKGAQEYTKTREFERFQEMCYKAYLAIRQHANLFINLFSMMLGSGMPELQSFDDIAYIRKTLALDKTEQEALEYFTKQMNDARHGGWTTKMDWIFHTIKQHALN
Chain of PI3Kinase(p110a(H1047R)/p85a)(m) (P26450 2-724 partner): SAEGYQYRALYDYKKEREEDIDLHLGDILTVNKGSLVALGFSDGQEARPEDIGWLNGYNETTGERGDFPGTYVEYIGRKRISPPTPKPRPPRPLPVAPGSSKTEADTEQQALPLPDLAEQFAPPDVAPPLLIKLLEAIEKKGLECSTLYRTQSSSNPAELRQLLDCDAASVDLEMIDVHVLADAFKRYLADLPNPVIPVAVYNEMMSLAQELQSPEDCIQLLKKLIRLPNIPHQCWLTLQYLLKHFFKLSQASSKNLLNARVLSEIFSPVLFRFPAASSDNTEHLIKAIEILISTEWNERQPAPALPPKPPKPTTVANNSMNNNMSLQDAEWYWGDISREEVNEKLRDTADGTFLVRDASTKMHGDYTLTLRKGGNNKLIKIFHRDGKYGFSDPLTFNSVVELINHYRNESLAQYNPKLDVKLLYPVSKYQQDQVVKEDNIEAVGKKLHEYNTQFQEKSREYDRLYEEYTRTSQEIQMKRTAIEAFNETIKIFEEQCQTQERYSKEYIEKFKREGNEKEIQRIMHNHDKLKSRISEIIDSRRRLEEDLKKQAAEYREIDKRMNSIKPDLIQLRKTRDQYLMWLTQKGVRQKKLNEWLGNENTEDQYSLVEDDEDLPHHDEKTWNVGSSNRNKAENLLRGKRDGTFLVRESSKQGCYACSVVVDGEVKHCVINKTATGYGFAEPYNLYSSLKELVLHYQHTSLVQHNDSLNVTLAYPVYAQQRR
Chain of CDK1/cyclinB(h) (P06493 whole entry): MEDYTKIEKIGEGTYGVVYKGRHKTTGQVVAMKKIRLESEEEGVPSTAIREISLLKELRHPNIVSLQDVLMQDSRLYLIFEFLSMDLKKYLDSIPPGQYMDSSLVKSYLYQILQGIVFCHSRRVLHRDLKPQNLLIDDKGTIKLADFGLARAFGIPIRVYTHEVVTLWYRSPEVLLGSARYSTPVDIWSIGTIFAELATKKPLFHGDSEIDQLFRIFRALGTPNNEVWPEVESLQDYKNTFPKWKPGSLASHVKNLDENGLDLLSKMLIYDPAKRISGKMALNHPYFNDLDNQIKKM
Chain of CDK1/cyclinB(h) (P14635 whole entry partner): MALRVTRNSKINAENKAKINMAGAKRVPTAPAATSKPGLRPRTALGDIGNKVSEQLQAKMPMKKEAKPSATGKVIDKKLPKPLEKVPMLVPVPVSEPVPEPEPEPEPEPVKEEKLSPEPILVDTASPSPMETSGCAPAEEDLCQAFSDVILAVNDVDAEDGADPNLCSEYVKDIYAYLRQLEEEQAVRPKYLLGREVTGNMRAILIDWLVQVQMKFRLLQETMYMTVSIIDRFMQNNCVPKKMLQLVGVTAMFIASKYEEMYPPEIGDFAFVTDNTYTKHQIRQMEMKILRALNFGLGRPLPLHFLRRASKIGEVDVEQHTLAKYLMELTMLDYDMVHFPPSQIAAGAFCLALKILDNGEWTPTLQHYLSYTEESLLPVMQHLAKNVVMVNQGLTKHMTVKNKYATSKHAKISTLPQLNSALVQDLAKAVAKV
Chain of EphB2(h) (P29323 19-1055): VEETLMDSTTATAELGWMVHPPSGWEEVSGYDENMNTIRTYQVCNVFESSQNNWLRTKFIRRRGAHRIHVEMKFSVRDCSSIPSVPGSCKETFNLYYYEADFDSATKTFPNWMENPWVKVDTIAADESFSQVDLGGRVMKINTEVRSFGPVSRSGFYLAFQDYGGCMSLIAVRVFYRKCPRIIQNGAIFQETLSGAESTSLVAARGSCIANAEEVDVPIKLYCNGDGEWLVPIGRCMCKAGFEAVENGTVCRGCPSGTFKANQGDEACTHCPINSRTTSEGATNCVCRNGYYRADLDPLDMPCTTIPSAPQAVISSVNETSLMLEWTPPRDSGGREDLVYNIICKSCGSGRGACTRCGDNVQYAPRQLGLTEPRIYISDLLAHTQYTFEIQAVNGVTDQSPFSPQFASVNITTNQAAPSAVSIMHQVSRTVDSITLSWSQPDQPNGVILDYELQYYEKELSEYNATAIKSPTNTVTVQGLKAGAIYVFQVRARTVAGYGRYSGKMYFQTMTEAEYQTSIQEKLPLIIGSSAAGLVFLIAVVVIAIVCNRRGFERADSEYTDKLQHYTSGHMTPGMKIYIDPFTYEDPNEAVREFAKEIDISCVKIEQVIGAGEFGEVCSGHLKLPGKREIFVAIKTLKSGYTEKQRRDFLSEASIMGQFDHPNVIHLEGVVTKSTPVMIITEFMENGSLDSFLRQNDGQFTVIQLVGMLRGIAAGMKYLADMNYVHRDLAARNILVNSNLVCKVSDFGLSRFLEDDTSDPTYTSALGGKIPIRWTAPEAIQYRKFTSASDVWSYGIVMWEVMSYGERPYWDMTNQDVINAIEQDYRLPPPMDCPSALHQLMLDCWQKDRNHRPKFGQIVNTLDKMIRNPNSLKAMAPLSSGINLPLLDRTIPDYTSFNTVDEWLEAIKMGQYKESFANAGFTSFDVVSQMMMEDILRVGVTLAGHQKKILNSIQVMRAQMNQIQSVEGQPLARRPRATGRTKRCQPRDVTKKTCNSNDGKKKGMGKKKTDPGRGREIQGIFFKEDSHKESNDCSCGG
Chain of BRAF (P15056 whole entry): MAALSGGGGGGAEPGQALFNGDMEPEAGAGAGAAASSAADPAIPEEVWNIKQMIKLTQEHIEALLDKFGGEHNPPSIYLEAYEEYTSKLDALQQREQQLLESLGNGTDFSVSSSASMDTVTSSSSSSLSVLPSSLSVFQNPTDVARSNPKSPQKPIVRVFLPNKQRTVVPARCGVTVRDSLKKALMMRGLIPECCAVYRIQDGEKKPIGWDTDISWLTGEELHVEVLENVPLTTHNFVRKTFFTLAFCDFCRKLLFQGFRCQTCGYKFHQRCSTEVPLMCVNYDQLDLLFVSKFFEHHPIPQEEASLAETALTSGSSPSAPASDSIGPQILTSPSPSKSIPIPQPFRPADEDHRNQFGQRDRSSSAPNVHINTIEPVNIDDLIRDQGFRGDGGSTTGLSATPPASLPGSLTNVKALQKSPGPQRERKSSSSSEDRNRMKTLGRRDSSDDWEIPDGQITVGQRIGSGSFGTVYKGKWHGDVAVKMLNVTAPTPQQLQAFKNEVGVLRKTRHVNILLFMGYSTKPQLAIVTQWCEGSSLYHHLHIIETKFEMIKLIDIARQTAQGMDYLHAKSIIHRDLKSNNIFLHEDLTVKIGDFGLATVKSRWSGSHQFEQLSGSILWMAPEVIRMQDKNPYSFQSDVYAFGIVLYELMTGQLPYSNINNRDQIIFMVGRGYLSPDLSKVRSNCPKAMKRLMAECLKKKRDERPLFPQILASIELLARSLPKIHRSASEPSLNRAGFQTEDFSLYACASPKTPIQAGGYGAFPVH
Chain of CDK5/p35(h) (Q00535 whole entry): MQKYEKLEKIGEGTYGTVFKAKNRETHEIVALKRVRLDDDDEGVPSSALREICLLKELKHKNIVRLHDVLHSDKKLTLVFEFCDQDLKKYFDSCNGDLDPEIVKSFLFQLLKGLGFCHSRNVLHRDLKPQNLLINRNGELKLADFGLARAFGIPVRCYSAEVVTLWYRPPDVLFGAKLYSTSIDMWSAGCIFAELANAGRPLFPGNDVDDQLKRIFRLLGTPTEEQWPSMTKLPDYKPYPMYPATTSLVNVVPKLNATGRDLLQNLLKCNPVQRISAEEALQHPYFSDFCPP
Chain of CDK5/p35(h) (Q15078 whole entry partner): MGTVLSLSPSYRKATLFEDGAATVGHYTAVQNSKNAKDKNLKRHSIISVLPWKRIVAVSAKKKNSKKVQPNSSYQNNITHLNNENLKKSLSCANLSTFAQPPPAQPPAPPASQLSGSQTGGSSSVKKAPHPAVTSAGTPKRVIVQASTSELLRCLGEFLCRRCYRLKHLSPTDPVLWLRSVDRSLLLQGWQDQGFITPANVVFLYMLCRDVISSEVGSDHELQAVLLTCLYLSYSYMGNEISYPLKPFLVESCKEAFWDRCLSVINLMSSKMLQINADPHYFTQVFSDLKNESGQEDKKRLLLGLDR

What is called inhibition is the relative decrease from the control value, in per cent. As a reminder, the IC50 is the concentration needed to halve the response being measured. High values mean weaker potency in that assay, low ones greater potency in that assay. As to `O=C(Nc1cc(Nc2ncccc2-c2ncnc3[nH]cnc23)ccc1F)c1cc(C(F)(F)F)cc(C(F)(F)F)c1` [SJ-C1044, N-(5-(3-(9H-purin-6-yl)pyridin-2-ylamino)-2-fluorophenyl)-3,5-bis(trifluoromethyl)benzamide], the inhibition at 10 µM in data set [1] is 2%; in data set [4], 68%; in data set [5] it was 5%; in data set [6] it was 37%; in [7] it was -5%; in data set [8] it was 12%. Further, the inhibition at 10 µM in [9] was -8%; in data set [10] (Table S1 no. 8), 44%; in data set [10] (second A-Raf(h) entry, Table S1 no. 62), -6%; in [13], 86%; in data set [14], -10%; in data set [15], -4%. The inhibition at 10 µM is -19% in data set [16], -7% in [17], -2% in data set [18] and 1% in data set [19]. In addition, the “2-week repeated oral toxicity” value in data set [2] was “no indications of toxicity”. For the same compound, the “toxicity and weight loss” value in data set [3] is given as “no signs of toxicity or significant weight loss”. This compound yielded an IC50 in data set [10] of more than 10 µM. For the same compound, in data set [11], the AKT phosphorylation result is “no detectable difference”. In data set [12] (KRAS-mutated colorectal cancer cells), the “paradoxical activation of MEK and ERK” value was “without any evidence of paradoxical activation”. Further, in data set [12] (LS513, 1 h treatment), the “MEK and ERK phosphorylation” value is “inhibited MEK and ERK phosphorylation potently”.
